Consider five compounds from patent US20100240746A1, “STEREOISOMERS OF TRICYCLODECAN-9-YL-XANTHOGENATE” (LUMAVITA AG, priority 2007, published 2010).

Data set [1] relates to phosphatidylcholine-specific phospholipase C (PC-PLC). As to conditions: Gonzalez-Roura et al.; comparison between diastereomers; cited from earlier work.
For a further data set, the system named is Calu-6 cells. In words: Cytotoxicity assay in Calu-6 cells (crystal violet). As to conditions: 48 hr. The class given is cell-based. The procedure:
(§1) Calu-6 cells and RITA cells were grown in DMEM cell culture medium containing 10% fetal calf serum in CO2 incubator under 5% CO2 at 37° C. with 100% humidity.
For cytotoxicity assay, Calu-6 cells were seeded in 96 well plates at a density of 3×10^6 cells per plate in the DMEM cell culture medium. The plates were incubated at 37° C. in the presence of 5% CO2 for 24 hr. The DMEM cell culture medium in the plates was exchanged with fresh DMEM cell culture medium containing test compounds at a series of concentrations. The plates were incubated at 37° C. in the presence of 5% CO2 for 48 hr. The plates were then washed with PBS, fixed with 3% formaldehyde solution containing 0.9% NaCl for 1 min, washed by water for 10 sec, and dried overnight. For detection, the plates were stained with crystal violet solution for 5 min at room temperature, washed 5 times with water, and dried at room temperature overnight. After adding ethanol/acetic acid (99:1, v/v, […]) to each well, the plates were measured at 595 nm using an ELISA reader. A dose response curve was obtained for each compound tested by plotting the mean values of the optical densities against compound concentration.

Data set [2] addresses T1, phosphatidylcholine-specific phospholipase C (PC-PLC) (Bacillus cereus, UniProt P09598).
T1 construct: purchased Invitrogen
In words: Amplex Red phosphatidylcholine-specific phospholipase C (PC-PLC) inhibition assay. The class given is biochemical, B. cereus. As to conditions: 30 min at 37° C., triplicate. The procedure: (§2) The inhibitory activities of optically active potassium salts of (+)- and (−)-O-exo/C-exo-tricyclo [5.2.1.0^2,6]-dec-9-yl-xanthic acid 1A ((+)- and (−)-enantiomers 1A) against phosphatidylcholine-specific phospholipase C were evaluated, together with D609 and potassium salt of racemic O-exo/C-exo xanthic acid 1A (racemic 1A), using Amplex Red phosphatidylcholine-specific phospholipase C(PC-PLC) assay kit, which was obtained from Invitrogen (Calsbad, Calif.). D609 was obtained from Sigma Aldrich.
(§3) An Amplex Red stock solution (˜20 mM), a working reaction buffer, and a horseradish peroxidase stock solution (200 U/mL), a H2O2 working solution (20 mM), a choline oxidate stock solution (20 U/mL), an alkaline phosphatase stock solution (400 U/mL), and a B. cereus PC-PLC stock solution (10 U/mL) were prepared according to the instruction of the assay kit. The stock solution (100 mg/mL) for each test compound was also prepared by dissolving the compound in water 2 hr prior to the start of the experiment.
(§4) A working Amplex Red/HRP/lecithin solution was prepared by adding 200 μL of Amplex Red reagent stock solution, 100 μL of HRP stock solution, 200 μL of alkaline phosphatase stock solution, 100 μL of choline oxidase stock solution, and 78 μL of the lecithin solution to […] of the working reaction buffer. PC-PLC solution (0.2 U/mL) was prepared by diluting the PC-PLC stock solution with the working reaction buffer to the desired concentration.
(§5) The test compound (25 μL) at a serious of concentrations was pipetted into a 96 well plate. For uninhibited PC-PLC controls and non-PC-PLC controls, 25 μL of water was added. After the addition of 50 μL of the Amplex Red/HRP/lecithin working solution, the reaction was initiated by adding 25 μL of PC-PLC solution to each well. To the non-PC-PLC controls, 25 μL of water was added instead of PC-PLC solution. The experiment was performed in triplicate. The reactions were protected from light. After incubated for 30 min at 37° C., the reactions were measured with a fluorescence microplate reader using excitation at 550 nm and emission detection at 590 nm. The fluorescent data obtained were corrected for background fluorescence by subtracting the values obtained from the non-PC-PLC controls.

In data set [3] the test system is bovine papilloma virus type I (BPV-1)-transformed HEF (HEF-BPV). The data set can be described thus: Inhibition of bovine papilloma virus, BPV-infected hamster embryo fibroblasts (HEF) cell proliferation assay. Type of data set: cell-based. As to conditions: Bos taurus papillomavirus 1, HEF, 72 h, pH 6.8, HEF-BPV, 37° C., read-out: IC50. As for the experimental part:
Briefly, hamster embryo fibroblasts and bovine papilloma virus type I (BPV-1)-transformed HEF (HEF-BPV) were grown in Eagle's basal medium. […] and HEF cells were seeded in 96-well plates at a density of 0.5×10^6 cells per plate in DMEM cell culture medium containing 10% fetal calf serum at pH 6.8. The plates were then incubated in the presence of 5% CO2 in 100% humidity at 37° C. After 6 hr, the cell culture medium in the plates was exchanged with fresh DMEM cell culture medium containing test compounds at a series of concentrations. The plates were incubated at 37° C. for additional 72 hr. Cells in the plates were then washed with PBS, fixed with 3% formaldehyde solution containing 0.9% NaCl for 1 min, washed by water for 10 sec, and dried overnight. For detection, the plates were stained with crystal violet solution for 5 min at room temperature, washed 5 times with water, and dried at room temperature overnight. After adding ethanol/acetic acid (99:1, v/v, […]) to each well, the plates were measured at 595 nm using an ELISA reader.

In data set [4] the target is T2, B. cereus PC-PLC (phosphatidylcholine-specific phospholipase C) (Bacillus cereus, UniProt P09598).
T2 construct: purchased Invitrogen
T2 sequence (P09598 39-283 limits assumed): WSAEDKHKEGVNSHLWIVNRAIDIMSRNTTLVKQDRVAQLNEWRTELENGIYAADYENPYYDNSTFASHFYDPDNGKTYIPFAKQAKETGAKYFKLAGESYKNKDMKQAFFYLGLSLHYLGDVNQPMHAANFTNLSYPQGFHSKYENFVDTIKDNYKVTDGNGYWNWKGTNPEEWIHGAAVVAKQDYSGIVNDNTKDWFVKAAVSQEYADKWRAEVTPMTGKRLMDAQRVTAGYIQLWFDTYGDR
In words: Inhibition of phosphatidylcholine-specific phospholipase C (Amplex Red PC-PLC assay kit). The class given is biochemical. As to conditions: 30 min at 37° C., 0.2 U/mL PC-PLC solution, triplicate. As for the experimental part: as §2, §3, §4
as §5, with “To the non-PC-PLC controls, 25 μL of water was added instead of PC-PLC solution. The experiment was performed in triplicate. The reactions were protected from light.” left out

The test system of data set [5] is Herpes simplex virus type-2 (HSV-2). In words: Inhibition of HSV-2 (plaque assay; Calu-6 infected, RITA cells for plaques). Type of data set: cell-based. The procedure: as §1
(§6) For HSV-2 inhibition, Calu-6 cells were seeded in 96 well plates at a density of 3×10^6 cells per plate in the DMEM cell culture medium. The plates were incubated at 37° C. in the presence of 5% CO2 for 24 hr. The DMEM cell culture medium in the plates was removed and the cells were infected with Herpes simplex virus type-2 at 50 plaque forming units per well. After incubation at 37° C. for 60 min, test compounds in DMEM cell culture medium at a series of concentrations were added. The plates were incubated at 37° C. in the presence of 5% CO2 for 48 hr. The plates were frozen at −20° C. prior to further analysis. After thawing at room temperature, supernatants containing infectious virus particles were prepared by centrifuging the supernatant from each well at 18,000 g at 4° C. for 5 min. The supernatant was further diluted before assay.
RITA cells were seeded in 24 well Linbra plates at a density of 4×10^6 cells per plate in 2 mL of DMEM cell culture medium. The plates were incubated at 37° C. in the presence of 5% CO2 for 24 hr. After the removal of the cell culture medium, 0.1 mL of the diluted supernatants was added and the plates were incubated at 37 C for 1 hr. DMEM cell medium containing 10% fetal calf serum and 0.5% methyl cellulose was added and the plates were incubated at 37 for 48 hr. The plates were then washed with PBS, fixed with 3% formaldehyde solution containing 0.9% NaCl for 1 min, washed by water for 10 sec, and dried overnight. For detection, the plates were then stained with crystal violet solution for 5 min at room temperature, washed 5 times with water, and dried at room temperature overnight. The number of plaques was determined macroscopically. The number of plaques per well was then multiplied with the dilution factor. Dose response curves were obtained by plotting the number of plaques/0.1 mL against compound concentration. The therapeutic index was also calculated for each compound by dividing LD50 with IC50.

In data set [6] the test system is herpes simplex virus type 2. In words: HSV-2 inhibition in Calu-6 cells, plaque titration on RITA cells. The class given is cell-based. As to conditions: Human alphaherpesvirus 2, Calu-6; 48 hr, 50 plaque forming units per well. The procedure:
as §1, §6
RITA cells were seeded in 24 well Linbra plates at a density of 4×10^6 cells per plate in 2 mL of DMEM cell culture medium. The plates were incubated at 37° C. in the presence of 5% CO2 for 24 hr. […] The number of plaques was determined macroscopically. […] The therapeutic index was also calculated for each compound by dividing LD50 with IC50.

Values after ≈ are worked out from the molar mass of the structure shown.

T1 sequence (P09598 39-283 limits assumed): as above

With `S=C(S)OC1CC2CC1C1CCCC21` (stereo not drawn) [O-exo/C-endo 1B], the “inhibitory activities against PC-specific phospholipase C” value in data set [1] is on record as “no significant differences”.

In general, IC50 refers to the concentration at which inhibition is half-maximal. Regarding `S=C(S)OC1CC2CC1C1CCCC21` (single isomer, unassigned; enantiomer 1a) [(+)-Enantiomer 1A, (+)-O-exo/C-exo-tricyclo[5.2.1.0^2,6]-dec-9-yl-xanthic acid 1A], in the data set with Calu-6 cells, the LD50 was determined as 81.29 ± 4.53 µg/mL. In data set [2], this compound gave an IC50 of 13.88 ± 0.85 µg/mL (≈ 60.8 µM).

For the compound `S=C(S)OC1CC2CC1C1CCCC21` (single isomer, unassigned; (+)) [(+)-Enantiomer 1A, (+)-O-exo/C-exo-tricyclo[5.2.1.0^2,6]-dec-9-yl-xanthic acid], the IC50 in data set [3] is 19.9 ± 2.52 µg/mL (≈ 87.1 µM); in data set [4], 60.8 µM; in data set [5] (Calu-6 cells, 48 hr, 50 plaque forming units per well), 20.97 ± 4.06 µg/mL (≈ 91.8 µM). Further, in data set [5] (LD50 (Calu-6) divided by IC50 (HSV-2), 2880 min), the “Therapeutic Index” value worked out at 3.9.

In data set [6], `Nc1nc2c(ncn2COCCO)c(=O)[nH]1` [Aciclovir, aciclovir] showed a concentration for half-maximal inhibition (IC50) of 1.21 ± 0.81 µg/mL (≈ 5.37 µM).

Turning to `S=C(S)OC1CC2CC1C1CCCC21` (racemic) [Racemic 1A, racemic O-exo/C-exo-tricyclo[5.2.1.0^2,6]-dec-9-yl-xanthic acid], the “inhibitory activities against PC-specific phospholipase C” value in data set [1] is on record as “no significant differences”.
